Experimental data taken from US20060272107A1, “Hair relaxing composition comprising at least one non-hydroxide polyguanidine” (priority 2005, published 2006).

Assay: Hair relaxing test: simplified aqueous composition applied to hair
Method: A simplified hair relaxing composition was prepared, containing N″,N″-1,3-propanediylbis[N,N,N′,N′-tetramethylguanidine] (RN: 289474-28-8) at a concentration of 0.5M in water, as active relaxing agent. This composition was applied to naturally frizzy African hair for 20 minutes at a temperature of 30° C.
A simplified hair relaxing composition was prepared, containing N″,N″,N″″-(nitrilotri-2,1-ethanediyl)tris[N,N,N′,N′-tetramethylguanidine] (RN: 368866-05-1) at a concentration of 0.25M in water, as active relaxing agent. This composition was applied to naturally frizzy African hair for 25 minutes at a temperature of 30° C.

SMILES | hair relaxing (0.25M in water, applied for 25 minutes at 30° C) | hair relaxing (0.5M in water, applied for 20 minutes at 30° C)
CN(C)C(=NCCN(CCN=C(N(C)C)N(C)C)CCN=C(N(C)C)N(C)C)N(C)C [N″,N″,N″″-(nitrilotri-2,1-ethanediyl)tris[N,N,N′,N′-tetramethylguanidine]] | effectively relaxed | –
CN(C)C(=NCCCN=C(N(C)C)N(C)C)N(C)C [N″,N″-1,3-propanediylbis[N,N,N′,N′-tetramethylguanidine]] | – | effectively relaxed
